Results on 68 compounds are retold here after patent publication US9845297B2, “Antimicrobial compounds and methods of making and using the same” (Melinta Therapeutics, Inc., priority 2009, dated 2017).

The experiment relates to Eschericia coli strain ATCC25922. Put plainly: standard microdilution assay to determine minimum inhibitory concentrations (MICs). The class given is cell-based. The note with it: Escherichia coli. Here is the method:
Minimum inhibitory concentrations (MICs) are determined by the microdilution method, typically in a final volume of 100 microliters, according to protocols outlined by The Clinical and Laboratory Standards Institute [CLSI; formerly the National Committee for Clinical Laboratory Standards (NCCLS)]. See CLSI: Methods for dilution antimicrobial susceptibility tests for bacteria that grow aerobically; approved standard-fifth edition. Wayne, Pa.: NCCLS; 2000. The assays can be also be performed in microtiter trays according to conventional methodologies as published by the CLSI. See CLSI. Methods for Dilution Antimicrobial Susceptibility Tests for Bacteria That Grow Aerobically; Approved Standard-Seventh Edition. CLSI Document M7-A7 [ISBN 1-56238-587-9] CLSI, 940 West Valley Road, Suite 1400, Wayne Pa. 19087-1898 USA, 2006).
The compounds of the present invention were tested for antimicrobial activity. The compounds were run against Eschericia coli strain ATCC25922 using a standard microdilution assay to determine minimum inhibitory concentrations (MICs). […] A “N/A” means that data is unavailable. It will be recognized by one skilled in the art that the compounds can be assessed against other bacterial organisms and that the presentation of data for activity against Eschericia coli is illustrative and in no way is intended to limit the scope of the present invention. The compounds of the present invention can be assayed against a range of other microorganisms depending upon the performance activity desired to be gathered. Furthermore, the “+”, “−”, and “N/A” representation and the selection of a cutoff value of 16 micrograms/ml is also illustrative and in no way is intended to limit the scope of the present invention.

Setting [1] is: ATCC25922, Eschericia coli strain ATCC25922, standard microdilution assay, read-out: E. coli ATCC25922 MIC.

Read-outs that look alike come from different tables or passages of the source.

By MIC is commonly meant the smallest concentration in the dilution series that meets the test's criterion for growth inhibition. For `CN(C(=O)C[C@@H](N)CCCNC(=N)N)C1CNC(NC(N)=O)=NC1=O` (some centres unmarked) [Compound 100], under setting [1], the MIC was above 16 µg/mL.
Turning to `CN(C(=O)C[C@H](CCCNC(=N)N)NC(=O)CCCO)C1CNC(NC(N)=O)=NC1=O` (some centres unmarked) [Compound 101], the MIC (ATCC25922, read-out: E. coli ATCC25922 MIC) is above 16 µg/mL.
On to `CN(C(=O)C[C@H](CCCNC(=N)N)NC(=O)CCCN)C1CNC(NC(N)=O)=NC1=O` (some centres unmarked) [Compound 102], for which, under setting [1], the MIC is above 16 µg/mL.
For `CN(C(=O)C[C@H](CCCNC(=N)N)NC(=O)CCN)C1CNC(NC(N)=O)=NC1=O` (some centres unmarked) [Compound 103], the MIC under setting [1] was above 16 µg/mL.
On the same count and under the same terms, next, `CN(C(=O)C[C@H](CCCNC(=N)N)NC(=O)CCO)C1CNC(NC(N)=O)=NC1=O` (some centres unmarked) [Compound 104]: above 16 µg/mL.
The same measure, in the same setting: next, `CN(C(=O)C[C@H](CCCNC(=N)N)NC(=N)N)C1CNC(NC(N)=O)=NC1=O` (some centres unmarked) [Compound 105]: above 16 µg/mL.
On the same count and under the same terms, next, `CN(C(=O)C[C@H](CCCNC(=N)N)NCCCN)C1CNC(NC(N)=O)=NC1=O` (some centres unmarked) [Compound 106]: below 16 µg/mL; `CN(C(=O)C[C@H](CCCNC(=N)N)NC(=O)CCNC(=N)N)C1CNC(NC(N)=O)=NC1=O` (some centres unmarked) [Compound 107]: above 16 µg/mL; `CN(C(=O)C[C@H](CCCNC(=N)N)NC(=O)CCN1CCNCC1)C1CNC(NC(N)=O)=NC1=O` (some centres unmarked) [Compound 108]: above 16 µg/mL.
`CN(C(=O)C[C@H](CCCNC(=N)N)NCCCCNC(=N)N)C1CNC(NC(N)=O)=NC1=O` (some centres unmarked) [Compound 109]: the MIC under setting [1] was below 16 µg/mL.
The same measure, in the same setting: next, `CN(C(=O)C[C@@H](N)CCCNC(=N)N)C1CNC(NC(=O)c2ccc(NC(=O)[C@@](C)(N)CO)cc2)=NC1=O` (some centres unmarked) [Compound 110]: below 16 µg/mL; `CN(C(=O)C[C@H](CCCNC(=N)N)NC(=O)CCc1c[nH]cn1)C1CNC(NC(N)=O)=NC1=O` (some centres unmarked) [Compound 111]: above 16 µg/mL.
Same read-out and setting: next, `N=C(N)NCCC[C@H](N)CC(=O)N(CCCc1cocn1)C1CNC(NC(N)=O)=NC1=O` (some centres unmarked) [Compound 112]: above 16 µg/mL.
Take `NCCC[C@H](N)CCCn1cnc(N)nc1=O` [Compound 113]: the MIC under setting [1] is above 16 µg/mL.
The same measure, in the same setting: next, `N=C(N)NCCC[C@H](N)CCCn1cnc(N)nc1=O` [Compound 114]: above 16 µg/mL; `NCCCC[C@@H](N)CCn1ccc(N)nc1=O` [Compound 115]: above 16 µg/mL.
Same read-out and setting: next, `NCCC[C@H](N)CCCn1ccc(N)nc1=O` [Compound 116]: above 16 µg/mL; `N=C(N)NCCC[C@H](N)CCCn1ccc(N)nc1=O` [Compound 118]: above 16 µg/mL.
Same read-out and setting: next, `Nc1ccn(CCC[C@@H](N)CCCOCc2ccccc2)c(=O)n1` [Compound 119]: above 16 µg/mL; `N=C(N)NCCCCN[C@H](CCCCNC(=N)N)CCn1ccc(NC(N)=O)nc1=O` [Compound 120]: above 16 µg/mL; `N=C(N)NCCC[C@H](N)CCCn1ccc(NC(N)=O)nc1=O` [Compound 121]: above 16 µg/mL.
`NCCC[C@H](N)CCCn1ccc(NC(N)=O)nc1=O` [Compound 122]: the MIC under setting [1] is above 16 µg/mL.
Same read-out and setting: next, `NC(=O)Nc1ccn(CCC[C@@H](N)CCCO)c(=O)n1` [Compound 123]: above 16 µg/mL.
As for `N=C(N)NCCCC[C@@H](N)CCn1ccc(NC(N)=O)nc1=O` [Compound 124], the MIC under setting [1] was above 16 µg/mL.
Consider `N=C(N)NCCCC[C@H](CCn1ccc(NC(N)=O)nc1=O)NCCCN` [Compound 125], for which, under setting [1], the MIC was above 16 µg/mL.
Turning to `N=C(N)NCc1ccc(-n2ccc(NC(N)=O)nc2=O)cc1` [Compound 126], the MIC under setting [1] is above 16 µg/mL.
Same read-out and setting: in the case of `N=C(N)NCc1ccc(-n2ccc(N)nc2=O)cc1` [Compound 127] it was above 16 µg/mL; in that of `NCCCCOc1nccc(N)n1` [Compound 128], above 16 µg/mL.
On the same count and under the same terms, next, `NCCCCn1ccc(N)nc1=O` [Compound 129]: above 16 µg/mL; `N=C(N)NCCC[C@@H](CCCn1ccc(NC(N)=O)nc1=O)NCCCN` [Compound 130]: above 16 µg/mL.
Still for that read-out and setting: next, `NCCCNCc1ccc(-n2ccc(NC(N)=O)nc2=O)cc1` [Compound 131]: above 16 µg/mL.
Turning to `NCCCNCc1ccc(-n2ccc(N)nc2=O)cc1` [Compound 132], the MIC under setting [1] is above 16 µg/mL.
On the same count and under the same terms, next, `N=C(N)NCCC[C@H](N)CCCn1cnc(NC(N)=O)nc1=O` [Compound 133]: above 16 µg/mL.
The same measure, in the same setting: next, `N=C(N)NCCCCN[C@@H](CCCNC(=N)N)CCCn1ccc(NC(N)=O)nc1=O` [Compound 134]: above 16 µg/mL.
Same read-out and setting: next, `NCCC[C@H](N)CCCN1CCC(NC(N)=O)NC1=O` (some centres unmarked) [Compound 135]: above 16 µg/mL; `NC(=O)NC1CCN(CCC[C@@H](N)CCCO)C(=O)N1` (some centres unmarked) [Compound 136]: above 16 µg/mL.
In the case of `NCCCNCc1ccc(-n2cc(F)c(N)nc2=O)cc1` [Compound 137], the MIC under setting [1] is above 16 µg/mL.
Still for that read-out and setting: next, `NCCCNCc1ccc(-n2cc(F)c(NC(N)=O)nc2=O)cc1` [Compound 138]: above 16 µg/mL; `NCc1ccc(-n2ccc(NC(N)=O)nc2=O)cc1` [Compound 139]: above 16 µg/mL.
For `NCc1cn(-c2ccc(-n3cnc(NC(N)=O)nc3=O)cc2)nn1` [Compound 140], the MIC under setting [1] is above 16 µg/mL.
As to `N=C(N)NCc1cn(-c2ccc(-n3ccc(NC(N)=O)nc3=O)cc2)nn1` [Compound 141], the MIC under setting [1] is above 16 µg/mL.
Still for that read-out and setting: next, `NCCCN(CCCN)Cc1ccc(-n2cc(F)c(N)nc2=O)cc1` [Compound 143]: above 16 µg/mL.
Same read-out and setting: in the case of `NCCCNC(CCCN)c1ccc(-n2ccc(NC(N)=O)nc2=O)cc1` (centres unmarked) [Compound 144] it was above 16 µg/mL; in that of `NCCCN(CCCN)Cc1ccc(-n2ccc(NC(N)=O)nc2=O)cc1` [Compound 145], above 16 µg/mL.
Turning to `NCCCC(N)c1ccc(-n2ccc(NC(N)=O)nc2=O)cc1` (centres unmarked) [Compound 146], the MIC under setting [1] was above 16 µg/mL.
On the same count and under the same terms, next, `N=C(N)NCCC[C@@H](CCCn1ccc(NC(=O)NS(=O)(=O)c2ccc(F)cc2)nc1=O)NCCCN` [Compound 147]: above 16 µg/mL; `N=C(N)NCCC[C@@H](CCCn1ccc(NC(=O)Nc2ccc(F)cc2)nc1=O)NCCCN` [Compound 148]: above 16 µg/mL; `NCCCN(CCCN)Cc1ccc(-c2c[nH]c(NC(N)=O)nc2=O)cc1` [Compound 149]: above 16 µg/mL.
Still for that read-out and setting: next, `NC[C@@H](N)c1cn(-c2ccc(-n3ccc(NC(N)=O)nc3=O)cc2)nn1` [Compound 150]: above 16 µg/mL.
Still for that read-out and setting: next, `Cc1nc(-c2cccc(NC(=O)Nc3ccn(CCC[C@H](CCCNC(=N)N)NCCCN)c(=O)n3)c2)no1` [Compound 151]: above 16 µg/mL; `CN(C)c1ccc(NC(=O)Nc2ccn(CCC[C@H](CCCNC(=N)N)NCCCN)c(=O)n2)cc1` [Compound 152]: above 16 µg/mL; `NCCN(CCN)CCCN1CC=C(n2ccc(NC(N)=O)nc2=O)CC1` [Compound 153]: above 16 µg/mL.
For `N=C(N)NCCC[C@@H](CCCn1ccc(NC(=O)c2ccc(Cl)cc2)nc1=O)NCCCN` [Compound 155], under setting [1], the MIC was above 16 µg/mL.
The same measure, in the same setting: in the case of `N=C(N)NCC(NCCCN)c1ccc(-n2ccc(NC(N)=O)nc2=O)cc1` (centres unmarked) [Compound 156] it was above 16 µg/mL; in that of `Cn1nnc2cc(C(=O)Nc3ccn(CCC[C@H](CCCNC(=N)N)NCCCN)c(=O)n3)ccc21` [Compound 157], above 16 µg/mL; in that of `Cc1c(C(=O)Nc2ccn(CCC[C@H](CCCNC(=N)N)NCCCN)c(=O)n2)ccn1-c1ccc(Cl)cc1` [Compound 158], above 16 µg/mL.
On to `N=C(N)NCCC[C@@H](CCCn1ccc(NC(=O)Nc2ccc(F)cc2F)nc1=O)NCCCN` [Compound 159], for which, under setting [1], the MIC is above 16 µg/mL.
For `N=C(N)NCCC[C@@H](CCCn1ccc(NC(=O)Nc2ccc(F)c(F)c2)nc1=O)NCCCN` [Compound 160], the MIC under setting [1] is above 16 µg/mL.
Still for that read-out and setting: next, `NCC[C@H](N)C(=O)N1CCN(C2C=NC(NC(N)=O)=NC2=O)CC1` (some centres unmarked) [Compound 161]: above 16 µg/mL; `NC[C@@H](N)C(=O)Nc1ccc(-c2c[nH]c(NC(N)=O)cc2=O)cc1` [Compound 162]: above 16 µg/mL.
On the same count and under the same terms, next, `Cn1ncc(C(=O)Nc2ccn(CCC[C@H](CCCNC(=N)N)NCCCN)c(=O)n2)c1Cl` [Compound 163]: below 16 µg/mL.
The same measure, in the same setting: next, `N=C(N)NCCC[C@@H](CCCn1ccc(NC(=O)Nc2cc(F)c(F)cc2F)nc1=O)NCCCN` [Compound 164]: above 16 µg/mL; `N=C(N)NCCC[C@@H](CCCn1ccc(NC(=O)Nc2ccc(C(F)(F)F)cc2)nc1=O)NCCCN` [Compound 165]: above 16 µg/mL.
As for `Cc1nc(-c2cccc(NC(=O)Nc3ccn(CCC[C@H](CCCNC(=N)N)NCCCN)c(=O)n3)c2)cs1` [Compound 166], under setting [1], the MIC was above 16 µg/mL.
With `Cc1nc(-c2cnccn2)sc1C(=O)Nc1ccn(CCC[C@H](CCCNC(=N)N)NCCCN)c(=O)n1` [Compound 167], the MIC under setting [1] is above 16 µg/mL.
Still for that read-out and setting: in the case of `N=C(N)NCCCN(CCCN)Cc1ccc(-c2c[nH]c(NC(N)=O)nc2=O)cc1` [Compound 168] it was below 16 µg/mL; in that of `N=C(N)NCCN(CCCN)Cc1ccc(-c2c[nH]c(NC(N)=O)nc2=O)cc1` [Compound 170], above 16 µg/mL; in that of `NCCCN(CCCN)Cc1ccc(-c2c[nH]c(NC(=O)Nc3ccc(F)c(F)c3)nc2=O)cc1` [Compound 171], above 16 µg/mL.
